Read-outs that look alike come from different tables or passages of the source.
Key:
S. hermonthica seeds [1] = settings: previously described MPs, cited from earlier work
P. aegyptiaca seeds = experiment: Parasitic seed germination bioassay, Phelipanche; assay type: in vivo, Phelipanche aegyptiaca; settings: 2.5 μM; for Phelipanche aegyptiaca germination rate: one week at 25° C. in dark
Experimental: (§1) Seeds of the two root parasitic species S. hermonthica and P. aegyptiaca were tested for germination in response to MP compounds application. After pre-conditioning, as previously described (Jamil et al., 2012), Striga and Phelipanche seeds were first tested with each MP solutions at 2.5 μM concentration (55 μl per disc) and then at a concentration range from 10^−5M to 10^−12M, to calculate EC50. Sterile MilliQ water and GR24 were applied as a negative and a positive control, respectively. Treated seeds were incubated in dark for 24 h at 30° C. (for S. hermonthica) and for one week at 25° C. (for P. aegyptiaca). Germination was recorded under a binocular microscope and used to determine the germination rate (%).

[2] = Chemical stability in aqueous solution monitored by HPLC/UPLC; assay type: physicochemical; settings: aqueous solution pH 5.5-6.0, 21±1° C., HPLC, up to 3 weeks
Experimental: Three selected MPs (MP16, MP18, MP21) and rac-GR24 were tested for their chemical stability at 21±1° C. in aqueous solution with a pH of 5.5-6.0, as described previously (Jamil et al., 2018). Compound solution (1 mg ml^−1) was prepared with […] and 750 μl Mili-Q water. Thereafter, 25 μl Indanol (1 mg ml^−1, internal standard) was spiked in 975 μl previous prepared solution. The time course of degradation was monitored in about 50 μl aliquots by UPLC analysis using an Agilent HPLC ZORBAX Eclipse XDB-C18 column ([…], 4.6×150 mm) eluted first by 5% acetonitrile in water for 0.5 min then by a gradient from 5% to 100% acetonitrile within 18 min in water, and finally by 100% acetonitrile for 5 min. The column was operated at 40° C. at […] flow rate. Compounds eluted from the column were detected with a photodiode array detector, and the relative quantity of non-degraded amount was calculated using Indanol as internal standard. Stability was monitored at 24 h intervals up to 3 weeks.

S. hermonthica seeds [3] = experiment: Parasitic seed germination bioassay, Striga; assay type: in vivo, Striga hermonthica; settings: for Striga germination rate (comparison in words) / Striga germination rate: 2.5 μM; for EC50: 10^−5M to 10^−12M; for Striga germination rate: 24 h at 30° C. in dark
Experimental: (§2) Standard procedure was adopted to collect data for each trait, which were analyzed statistically using statistical software package R (version 3.2.2). One-way analysis of variance (ANOVA) and LSD (Least significant difference) multiple range test were applied to investigate the effect of various SL analogs (MPs 16-18 and 21-25) for various parameters. Half Maximum Effective Concentration (EC50) was calculated using IC50 toolkit (http://www.ic50.tk/index.html).
as §1

OsD14 = biological target: T1, OsD14 (Oryza sativa subsp. japonica, UniProt Q10QA5); experiment: In vitro YLG (Yoshimulactone Green) hydrolysis competition assay with OsD14; assay type: biochemical, rice
T1 construct: made in house
T1 sequence (Q10QA5 1-318): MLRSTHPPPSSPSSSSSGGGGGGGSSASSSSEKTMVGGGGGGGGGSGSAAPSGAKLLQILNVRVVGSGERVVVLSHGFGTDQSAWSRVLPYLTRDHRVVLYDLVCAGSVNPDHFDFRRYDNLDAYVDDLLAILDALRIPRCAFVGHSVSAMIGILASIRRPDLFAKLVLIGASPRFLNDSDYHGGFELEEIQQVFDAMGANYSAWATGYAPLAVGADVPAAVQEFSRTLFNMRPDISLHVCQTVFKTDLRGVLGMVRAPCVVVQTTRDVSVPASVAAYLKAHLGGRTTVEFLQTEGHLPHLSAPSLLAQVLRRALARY
Experimental: (§3) Purification of ShHTL7/OsD14 was carried out by adopting the procedure explained previously (Jamil et al., 2018). In vitro YLG hydrolysis assays were conducted as described before (Tsuchiya et al., 2015). About 3.0 μM of purified ShHTL7/OsD14 protein was used in a reaction buffer (1×PBS buffer, pH 7.3) with 0.1% dimethyl sulfoxide (DMSO) at a 100 μl volume on a 96-well black plate (Greiner). SL analogs (at range between 0.01 to 50 μM) were co-incubated with 1.0 μM of YLG (Tokyo Chemical Industry Co. Ltd., product number E1238) for 60 min at room temperature. In this competition assay, fluorescent intensity was measured by spectraMax i5 (Molecular Devices) at excitation at 480 nm and detection at 520 nm. The variation in fluorescence recorded over the course of 1 h of YLG incubation in protein-free buffer was subtracted from the data collected in presence of protein. IC50 values were calculated by using Quest Graph™ IC50 Calculator.

ShHTL7 = ShHTL7 (Striga hermonthica, UniProt A0A0M3PNA2); experiment: In vitro YLG (Yoshimulactone Green) hydrolysis competition assay with ShHTL7; assay type: biochemical; settings: competition with 1.0 μM YLG, 60 min, room temperature
Experimental: as §3

[4] = tested on: SL deficient d10/CCD8 rice mutant; experiment: Rice micro tillering bioassay, SL deficient d10/CCD8 mutant; assay type: in vivo; settings: 2.5 μM
Experimental: (§4) After sterilization with 50% sodium hypochlorite, rice seeds (d10/CCD8 and d3 mutants) were germinated on moist filter paper in the dark at 30° C. The germinated seeds were then transferred to light in a growth cabinet with fluorescent white light (130-180 μM m^−2 s^−1) at 30° C. for seven days. One-week old rice seedlings were shifted to 50 ml falcon tubes (one seedling per tube) filled with half-strength modified Hoagland nutrient solution. The tubes with rice seedlings were kept in green house to grow at 30° C. and 70% humidity. After one week, the rice seedlings were treated with 2.5 μM of each SL analog. Mock and GR24 (2.5 μM) were included as control treatments. Each of the SL analogs (MPs 16-18 and 21-25) was applied twice per week up to three weeks. Number of tillers per plant, plant height and dry biomass were measured after three weeks of SL analogs application at final harvest.
as §2

[5] = tested on: rice (cv IAC-165) leaf segments; experiment: Dark-induced leaf senescence of rice leaf segments; settings: 3.0 μM; for ion leakage (loss of membrane integrity): continued to increase till day 6; for chlorophyll content: third and fourth day of treatment
Experimental: Rice seeds (cv IAC-165) were surface sterilized with 50% sodium hypochlorite solution and 0.05% Tween-20, and germinated on moist filter paper in the sealed petri plates. The petri plates with germinated seeds were transferred to white fluorescent light (130-180 μM m^−2 s^−1) with 16 h:8 h (L/D) at 28° C., to establish seedlings for one week. Seven days old uniform seedlings were selected and transferred to 50 ml tubes containing half strength modified Hoaglands nutrient solution. After one week, 2 cm leaf segments were cut from middle part of third leaves of rice plants. Each segment was put in a well (in 12-well plates) containing 4 ml of 3.0 mM MES buffer with 0.05% Tween-20. MP16 and GR24 were applied at 3.0 μM concentration. Plates were incubated at 30° C. in the dark for 7 days. After application of MP16 and GR24, plates were monitored on a daily basis and changes in leaf color, chlorophyll content and ion leakage were monitored.

[6] = tested on: SL insensitive d3 rice mutant; experiment: Rice micro tillering bioassay, SL insensitive d3 mutant; assay type: in vivo; settings: 2.5 μM, three weeks, no effect of treatment
Experimental: as §4, §2

ShHTL7, sequence (A0A0M3PNA2 entry or part of it): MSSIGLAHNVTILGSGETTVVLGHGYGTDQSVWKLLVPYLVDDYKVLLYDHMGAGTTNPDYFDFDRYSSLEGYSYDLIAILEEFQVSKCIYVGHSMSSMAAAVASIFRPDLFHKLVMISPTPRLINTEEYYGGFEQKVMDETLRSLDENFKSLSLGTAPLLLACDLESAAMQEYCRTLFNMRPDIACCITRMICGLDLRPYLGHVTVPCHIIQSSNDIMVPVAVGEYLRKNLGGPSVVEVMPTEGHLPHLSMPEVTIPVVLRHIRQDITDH

| Structure (SMILES) | Phelipanche aegyptiaca germination rate (P. aegyptiaca seeds) | stability (relative amount of non-degraded compound) compared to GR24 [2] | Striga germination rate (comparison in words) (S. hermonthica seeds [3]) | EC50 (S. hermonthica seeds [3]; Striga hermonthica) | EC50 compared with MPs 19 and 20 (S. hermonthica seeds [3]; Striga seed germination) | Phelipanche seed germination (comparison in words) (P. aegyptiaca seeds) | also measured |
| --- | --- | --- | --- | --- | --- | --- | --- |
| COC(=O)/C(=C/OC1C=C(C)C(=O)O1)c1ccc([N+](=O)[O-])cc1 (centres unmarked) [MP1] |  |  |  |  |  |  | EC50 relative to that of GR24 (Jamil et al., 2018) (S. hermonthica seeds [1]): about 17 times; EC50 (S. hermonthica seeds [1]; read-out: EC50 (Striga seed germination, Jamil et al., 2018)): 1.5 nM |
| CC1=CC(O/C=C(/C(=O)OCc2ccccc2)c2ccccc2)OC1=O (centres unmarked) [MP18, (E)-Benzyl 3-((4-methyl-5-oxo-2,5-dihydrofuran-2-yl)oxy)-2-phenylacrylate] | around 51% | in the range of that of GR24 | lower germination rate | 6.44 nM | lower EC50 than MPs 19 and 20 |  |  |
| CC1=CC(O/C=C(/C(=O)OCC(C)C)c2ccccc2)OC1=O (centres unmarked) [MP19, reference compound] |  |  |  |  |  | comparable germination rate as MPs 16 and 18 |  |
| CC1=CC(O/C=C(\C(=O)N(C)C)c2ccccc2)OC1=O (centres unmarked) [MP16, (Z)—N,N-Dimethyl-3-((4-methyl-5-oxo-2,5-dihydrofuran-2-yl)oxy)-2-phenylacrylamide] | around 51% | in the range of that of GR24 | higher than MPs 19 and 20 | 0.105 nM | lower EC50 than MPs 19 and 20 |  | IC50 (OsD14): 3070 ± 540 nM; IC50 (ShHTL7): 4370 ± 210 nM; tillering inhibition (in words) ([4]; d10 mutant, compared to mock treatment): more effective compared with MPs 19 and 20; effect on growth, biomass and plant height ([4]; rice seedlings, compared with GR24): stunted growth and triggered senescence in rice seedlings, leading to reduced biomass and plant height; Striga germination rate (S. hermonthica seeds [3]): 62%; EC50 relative to that of GR24 (S. hermonthica seeds [3]; Striga seed germination): less than two times higher; ion leakage (loss of membrane integrity) ([5]; dark): began to increase on the third day of treatment; chlorophyll content [5]: significant reduction |
| CC1=CC(O/C=C(/C(=O)Oc2ccccc2)c2ccccc2)OC1=O (centres unmarked) [MP17, (E)-Phenyl 3-((4-methyl-5-oxo-2,5-dihydrofuran-2-yl)oxy)-2-phenylacrylate] |  |  | lower germination rate | 4350 nM |  |  |  |
| CC1=CC(O/C=C(/C(=O)Oc2ccc(C)cc2)c2ccccc2)OC1=O (centres unmarked) [MP24, (E)-p-Tolyl 3-((4-methyl-5-oxo-2,5-dihydrofuran-2-yl)oxy)-2-phenylacrylate] |  |  |  |  |  | lower activity |  |
| CC1=CC(O/C=C(/C(=O)Oc2cccc(Cl)c2)c2ccccc2)OC1=O (centres unmarked) [MP22, (E)-3-Chlorophenyl 3-((4-methyl-5-oxo-2,5-dihydrofuran-2-yl)oxy)-2-phenylacrylate] |  |  |  |  |  | lower activity |  |
| CC1=C[C@H](O/C=C2/C(=O)O[C@@H]3c4ccccc4C[C@H]23)OC1=O [GR24, reference compound] | 43% |  |  |  |  |  | IC50 (OsD14; competition with 1.0 μM YLG, 60 min, room temperature, read-out: IC50, OsD14-mediated YLG hydrolysis): 1040 ± 90 nM; number of tillers per plant [6]: 4; IC50 (ShHTL7): 980 ± 260 nM; Striga germination rate (S. hermonthica seeds [3]): 72%; EC50 (S. hermonthica seeds [3]): 0.0723 nM; loss of the green color of leaf segments (time) ([5]; dark, 30° C., one day earlier than mock control): on the third day after application; ion leakage (loss of membrane integrity) ([5]; dark): began to increase on the third day of treatment; chlorophyll content [5]: significant reduction |
| CC1=CC(O/C=C(/C(=O)OCc2ccccc2)c2ccccc2)OC1=O (centres unmarked) [MP21, (E)-Benzyl 3-((4-methyl-5-oxo-2,5-dihydrofuran-2-yl)oxy)-2-phenylacrylate] |  | higher degradation rate, compared to GR24 |  |  | lower EC50 than MPs 19 and 20 | lower activity |  |
| CC1=CC(O/C=C(/C(=O)Oc2cccc3ccccc23)c2ccccc2)OC1=O (centres unmarked) [MP25, (E)-naphthalen-1-yl 3-((4-methyl-5-oxo-2,5-dihydrofuran-2-yl)oxy)-2-phenylacrylate] |  |  |  |  |  | lower activity |  |

Reference: US12660818B2, “Strigolactone analogs and methods of using” (King Abdullah University of Science and Technology, priority 2019, dated 2026)
